# Read-outs that look alike come from different tables or passages of the source.
# What was measured:
# DU-145 = assay: growth inhibition of DU-145 prostate cancer cells (calcein fluorescence); type: cell-based; conditions: Homo sapiens, DU-145, 72 h, read-out: DU-145 C50
# Method: (§1) Throughout the experiment the Tsu-Pr1 and Du-Pro1 cells were maintained in RPMI 1640 medium (GIBCO) containing 10% fetal bovine serum (Hyclone), 2 mM glutamine, 100 U/ml penicillin, and 100 μg/ml streptomycin. The PC-3 cells were maintained in Ham's F12K medium (Irvine Scientific) containing 10% fetal bovine serum (Hyclone), 2 mM glutamine, 100 U/ml penicillin, and 100 μg/ml streptomycin. All cell lines were maintained at 37° C. in a humidified atmosphere containing 5% CO2. The DU-145 cells were maintained in minimal essential medium (Gibco), containing 10% fetal bovine serum (Hyclone), 2 mM glutamine, and no antibiotics.
# (§2) Tests for growth inhibition by the candidate compounds were conducted by the following procedure. In each well of a 96-well plate (Falcon) were placed 2,500 cells in 0.1 ml of medium. The cultures were incubated overnight after which a 0.1 ml aliquot of culture medium was added to each well. […] Other control wells received medium without any K-252a derivative compounds. Incubation was continued for three days. On day three the number of cells in each well was measured using a calcein fluorescence assay (Bozyczko-Coyne et al. J. Neurosci. Meth. 50, 205-216 (1993)).
# (§3) Calcein AM (Molecular Probes, Eugene, Oreg.), an analog of the viable dye fluorescein diacetate, is taken up by cells and cleaved intracellularly to fluorescent salts that are retained by intact membranes of viable cells. This method thus provides a reliable and quantitative measurement of cell survival. Calcein AM was diluted 2× in Dulbeccos phosphate buffered saline (D-PBS) to 2× the final assay concentration (6 μM) and 100 μl was added to culture wells containing 100 μl of medium. The plates were then incubated for 1 hour at 37° C. Cells were then washed 4 times with D-PBS to remove excess calcein not taken up by cells. The plate was read using a Millipore plate reading fluorimeter (Cytofluor 2350) at emission=485 nm and excitation=538 nm. After subtraction of blank values (wells containing medium but no cells), relative fluorescent values reflect a quantitative measurement of cell survival.
# (§4) The number of cells in the wells containing functional derivatives was compared to the number of cells in the control wells. The concentration which inhibited cell growth by 50% was calculated and is referred to as the "IC50 ".
# [1] = tested on: Dunning R-3327 AT-2.1 prostate tumor; assay: inhibition of growth of Dunning R-3327 AT-2.1 prostate tumor in adult male Copenhagen rats; type: in vivo, rat; conditions: 3 mg/kg/day s.c.
# Text: The AT-2 tumor is a highly anaplastic cell line derived from the original slow-growing androgen-dependent Dunning R-3327 H rat prostate tumor (Issacs et al., Prostate 9:261-281, 1986). The AT-2 tumor model has been used to characterize other potential anti-prostatic cancer agents including linomide (Ichikawa et al., Cancer Research 52:3022-3028, 1992) and suramin (Morton et al., Prostate 17:327-336, 1990) which is undergoing evaluation in clinical trials for androgen-independentprostate cancer (Eisenberger et al., J. Natl. Can. Inst. 85: 611-621, 1993).
# Experimental Protocol: Twenty-four inbred male Copenhagen rats were inoculated subcutaneously in the flank with 1×10^6 viable AT-2.1 tumor cells. All animals were allowed to develop tumors of approximately 2.7 cm^3 in size (approximately 14 days) before being randomized into three groups of 8 animals each. Group 1 received daily subcutaneous injections of vehicle alone (1 ml/kg body weight). […] All animals had their tumor sizes evaluated for a period of 16 days. Tumor volume was calculated using the formula (1×w^2)×0.5.
# trkA = target: T1, trkA (Rattus norvegicus, UniProt P35739); assay: inhibition of NGF-stimulated trk autophosphorylation (tyrosine phosphorylation) in PC12 cells, anti-phosphotyrosine Western blot; type: cell-based; conditions: for trk 100 nM (inhibition of phosphorylation) / trk 500 nM (inhibition of phosphorylation): NGF 50 ng/ml; for trk 500 nM (inhibition of phosphorylation): 500 nM compound; on trk 100 nM (inhibition of phosphorylation): key: +: Inhibited phosphorylation; -: Did not inhibit phosphorylation; on trk 500 nM (inhibition of phosphorylation): key: +: Inhibited phosphorylation; -: Did not inhibit phosphorylation
# T1 construct: are rat pheochromocytoma cells that bear trkA; host or cells: PC12 rat pheochromocytoma cells
# T1 sequence (P35739 33-799): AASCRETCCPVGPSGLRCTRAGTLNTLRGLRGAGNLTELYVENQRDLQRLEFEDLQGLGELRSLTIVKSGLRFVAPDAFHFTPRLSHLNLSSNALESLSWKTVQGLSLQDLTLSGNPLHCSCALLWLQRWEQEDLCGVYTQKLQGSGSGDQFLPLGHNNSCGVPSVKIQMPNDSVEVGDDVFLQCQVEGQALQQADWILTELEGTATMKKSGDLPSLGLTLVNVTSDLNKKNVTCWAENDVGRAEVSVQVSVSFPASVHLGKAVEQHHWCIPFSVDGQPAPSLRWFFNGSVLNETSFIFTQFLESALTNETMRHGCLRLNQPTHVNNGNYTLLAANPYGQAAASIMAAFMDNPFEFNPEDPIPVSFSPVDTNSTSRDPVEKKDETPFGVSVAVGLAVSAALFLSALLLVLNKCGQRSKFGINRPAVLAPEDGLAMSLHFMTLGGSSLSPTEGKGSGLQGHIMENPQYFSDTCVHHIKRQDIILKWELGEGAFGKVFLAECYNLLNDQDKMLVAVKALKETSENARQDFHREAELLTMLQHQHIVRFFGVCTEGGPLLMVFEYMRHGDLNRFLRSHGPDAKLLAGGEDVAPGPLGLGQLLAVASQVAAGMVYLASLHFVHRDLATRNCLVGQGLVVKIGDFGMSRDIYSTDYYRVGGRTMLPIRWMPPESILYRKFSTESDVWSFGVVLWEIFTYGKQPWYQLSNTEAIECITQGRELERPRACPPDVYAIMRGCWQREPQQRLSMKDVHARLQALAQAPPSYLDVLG
# Method: Candidate compounds for the inhibition of prostate cell proliferation were selected according to their ability to inhibit the tyrosine kinase activity associated with the trks.
# PC12 cells (ATCC #CRL1721) are rat pheochromocytoma cells that bear trkA and differentiate into sympathetic neurons when treated with NGF. […] Cells were incubated at 37° C. in a humidified atmosphere of 10% CO2 and 90% air. […] The cells in each culture were disrupted and cell lysates were prepared by standard techniques known to those skilled in the art. Each lysate was incubated with anti-trk antibody whereby immune complexes were formed. […] The immune complexes were collected on Protein A-Sepharose beads, separated by SDS-polyacrylamide gel electrophoresis (SDS-PAGE), and transferred to polyvinylidene difluoride (PVDF) membranes (Millipore Corp., Bedford, Mass.), using techniques well known to those skilled in the art. The membranes were incubated with anti-phosphotyrosine antibody, which binds to the tyrosine phosphorylated trks, but not to the un-phosphorylated form of trks. Proteins bound to anti-phosphotyrosine antibody were visualized with enhanced chemiluminescence (ECL, Amersham), and are shown as dark "spots" in FIG. 1.
# Measurement of the autophosphorylation of trk provides a good index of trk tyrosine kinase activity, and thereby of trk stimulation.
# Inhibition was indicated by the absence of a spot migrating with the trk marker shown at the left side of the figure. Partial inhibition was indicated by a spot of reduced size.
# Tsu-Pr1 = assay: growth inhibition of Tsu-Pr1 prostate cancer cells (calcein fluorescence); type: cell-based; conditions: Homo sapiens, TSU-Pr1, 72 h, read-out: Tsu-Pr1 IC50
# Method: as §1, §2, §3, §4
# [2] = tested on: androgen independent human prostate cancer cell lines Tsu-Pr1, DuPro-1, PC-3 and DU-145; assay: growth inhibition of prostate cancer-derived cell lines, overall (calcein fluorescence); type: cell-based; conditions: Table 3
# Method: as §1, §2
# Calcein AM (Molecular Probes, Eugene, Oreg.), an analog of the viable dye fluorescein diacetate, is taken up by cells and cleaved intracellularly to fluorescent salts that are retained by intact membranes of viable cells. This method thus provides a reliable and quantitative measurement of cell survival. Calcein AM was diluted 2× in Dulbeccos phosphate buffered saline (D-PBS) to 2× the final assay concentration (6 μM) and 100 μl was added to culture wells containing 100 μl of medium. The plates were then incubated for 1 hour at 37° C. Cells were then washed 4 times with D-PBS to remove excess calcein not taken up by cells. The plate was read using a Millipore plate reading fluorimeter (Cytofluor 2350) at emission=485 nm and excitation=538 nm. After subtraction of blank values (wells containing medium but no cells), relative fluorescent values reflect a quantitative measurement of cell survival. […]
# Du-Pro1 = assay: growth inhibition of Du-Pro1 prostate cancer cells (calcein fluorescence); type: cell-based; conditions: Homo sapiens, 72 h, read-out: Du-Pro1 IC50
# Method: as §1, §2, §3, §4
trk 100 nM (inhibition of phosphorylation) (trkA; 100 nM compound),trk 500 nM (inhibition of phosphorylation) (trkA),IC50 (Tsu-Pr1; 3 days incubation) [nM],Structure (SMILES),also measured
+,,510,CN1CC2(CC3OC2(C)n2c4ccccc4c4c5c(c6c7ccccc7n3c6c42)C(=O)NC5)OC1=O (stereo not drawn) [Compound I-15],
-,+,,COC(=O)C1(O)CC2OC1(C)n1c3ccccc3c3c4c(c5c6cc(CSCc7ccco7)ccc6n2c5c31)C(=O)NC4 (stereo not drawn) [Compound I-68],
+,+,,COC(=O)C1(O)CC2OC1(C)n1c3ccccc3c3c4c(c5c6cc(C=NN7CCCC7)ccc6n2c5c31)C(=O)NC4 (stereo not drawn) [Compound I-69],
+,+,,COC(=O)C1(O)CC2OC1(C)n1c3ccccc3c3c4c(c5c6cc(C=NNC(=N)N)ccc6n2c5c31)C(=O)NC4 (stereo not drawn) [Compound I-73],
,+,,COC(=O)C1(O)CC2OC1(C)n1c3ccccc3c3c4c(c5c6cc(C=NN(C)C)ccc6n2c5c31)C(=O)NC4 (stereo not drawn) [Compound I-75],
-,+,,C=CCn1c2ccccc2c2c3c(c4c5ccccc5n(CC=C)c4c21)C(=O)NC3 [II-1],

# Second part, the compound before the results:
Structure (SMILES),trk 100 nM (inhibition of phosphorylation) (trkA; 100 nM compound),trk 500 nM (inhibition of phosphorylation) (trkA),IC50 (Tsu-Pr1; 3 days incubation) [nM],also measured
COC(=O)C1(O)CC2OC1(C)n1c3ccccc3c3c4c(c5c6cc(O)ccc6n2c5c31)C(=O)NC4 (stereo not drawn) [Compound I-5],+,,,"IC50 (DU-145): 80 nM; inhibiting growth of AT-2.1 tumors ([1]; approximately): 50-60%; Tumor volume Day 0 ([1]; vehicle 2.73 ± 0.50): 2.70 ± 1.06 cm^3; Tumor volume Day 3 ([1]; vehicle 6.66 ± 1.48): 5.64 ± 1.32 cm^3; Tumor volume Day 8 ([1]; vehicle 21.0 ± 3.0): 10.7 ± 2.9 cm^3; Tumor volume Day 13 ([1]; vehicle 37.3 ± 4.0): 19.8 ± 5.6 cm^3; Tumor volume Day 16 ([1]; vehicle 58.7 ± 5.0): 24.6 ± 6.2 cm^3; IC50 (Tsu-Pr1): 70 nM; potency in inhibiting prostate cell line growth, in words [2]: most potent compounds in inhibiting growth in all four cell lines; IC50 (Du-Pro1): 60 nM"
C[S+]([O-])CC1(O)CC2OC1(C)n1c3ccccc3c3c4c(c5c6ccccc6n2c5c31)C(=O)NC4 (stereo not drawn) [Compound I-8],-,+,540,
CN(C)CC1(O)CC2OC1(C)n1c3ccccc3c3c4c(c5c6ccccc6n2c5c31)C(=O)NC4 (stereo not drawn) [Compound I-16],+,,210,
CC12OC(CC1(O)CSC1O[C@H](CO)[C@@H](O)[C@H](O)[C@H]1O)n1c3ccccc3c3c4c(c5c6ccccc6n2c5c31)CNC4=O (stereo partly drawn) [Compound I-20],-,+,5700,"phosphorylation response (FIG. 1, spot) (trkA; 100 nM compound, NGF, Western blot FIG. 1): somewhat diminished (a smaller spot was seen)"
COC(=O)C1(O)CC2OC1(C)n1c3ccccc3c3c4c(c5c6ccccc6n2c5c31)C(=O)NC4=O (stereo not drawn) [Compound I-22],+,,690,
CC12OC(CC1(O)CO)n1c3ccc(Br)cc3c3c4c(c5c6cc(Br)ccc6n2c5c31)CNC4=O (stereo not drawn) [Compound I-42],+,+,90,
COC(=O)C1(O)CC2OC1(C)n1c3ccccc3c3c4c(c5c6cc(CSc7nc8ccccc8[nH]7)ccc6n2c5c31)C(=O)NC4 (stereo not drawn) [Compound I-67],+,+,,
COC(=O)C1(O)CC2OC1(C)n1c3ccccc3c3c4c(c5c6cc(C=NNc7ccccn7)ccc6n2c5c31)C(=O)NC4 (stereo not drawn) [Compound I-70],+,+,,
COC(=O)C1(O)CC2OC1(C)n1c3ccccc3c3c4c(c5c6cc(CSCCN(C)C)ccc6n2c5c31)C(=O)NC4 (stereo not drawn) [Compound I-71],-,+,,
COC(=O)C1(O)CC2OC1(C)n1c3ccccc3c3c4c(c5c6cc(CSc7nc[nH]n7)ccc6n2c5c31)C(=O)NC4 (stereo not drawn) [Compound I-72],-,+,,
COC(=O)C1(O)CC2OC1(C)n1c3ccccc3c3c4c(c5c6cc(C=NN7CCOCC7)ccc6n2c5c31)C(=O)NC4 (stereo not drawn) [Compound I-74],+,+,,
COC(=O)C1(O)CC2OC1(C)n1c3ccccc3c3c4c(c5c6cc(C=NN7CCN(C)CC7)ccc6n2c5c31)C(=O)NC4 (stereo not drawn) [Compound I-76],,+,,
O=C1NCc2c1c1c3ccccc3n(CCCO)c1c1c2c2ccccc2n1CCCO [II-4],,+,,

# Source: patent publication US5654427A, “Indolocarbazole derivatives to treat a pathological condition of the prostate” (Kyowa Hakko Kogyo Co., Ltd., priority 1995, dated 1997)
